Measured values as given in PMC5790467, “Enhanced anti-tumor efficacy and mechanisms associated with docetaxel-piperine combination- in vitro and in vivo investigation using a taxane-resistant prostate cancer model” (Oncotarget, 2017).

Experiments:
P-gp = P-gp (Homo sapiens, UniProt P08183); experiment: Intracellular DTX accumulation in PC3-TxR cells; assay type: cell-based; details: 100 nM DTX; PIP at 50 μg/ml; 120 min; positive control 10 μg/ml of PSC833
Procedure: The PC3 and PC3-TxR cells were seeded in 6-well plate with density of 1×10^4 cells/ml and grew for 24 hours. […] The cells were then lysed and the protein level was measured using a BCA approach (Bio Rad Laboratory, Hercules, CA, USA). […] Briefly, to 0.1 ml of cell lysate, 0.3 ml of tert-butyl methyl ether was added and vortexed for 3 min. The upper organic layer was separated and evaporated to dryness. The residue was reconstituted using 0.1 ml of 80% acetonitrile and 10 μl was injected to an HPLC-MS/MS system for quantification. Paclitaxel was used as internal standard. The intracellular concentration was normalized per protein concentration. […] PSC833 (10 μg/ml) was used as positive control. […] The amount of DTX was compared among these treatment groups.

[1] = Body weight and tolerability in mice with TxR tumor xenografts
Procedure: For oral administration of PIP, in 1 ml of PIP dosing solution, 100 µl of its stock solution was solubilized with 500 µl of PEG 400 and 400 µl of physiological saline and the mixture was administrated orally to mice at the dose of 0.1 ml/10 g body weight. […] On Day 0, mice with PC3 cell xenografts were divided into two groups and mice with PC3-TxR cell xenografts were divided into four groups. Mice in each group were treated according to Supplementary Table 3 and the drug dosing lasted for 2 weeks with body weight and tumor sized measured twice per week. […] At the end of experiment, the mice were anesthetized followed by haemospasia to death by cardiac puncture.

PC3-TxR cells = experiment: Microarray gene expression profiling of PC3-TxR cells treated with PIP; assay type: cell-based, human; details: 6 h
Procedure: The microarray technique was utilized to identify the potential mechanisms related to the chemosensitizing effect of PIP in PC3-TxR cells by determining the gene expression profile at the whole genome level. PC3-TxR cells were seeded at a density of 1 × 10^5 cells/ml in DMEM supplemented with 10% fetal bovine serum and cultured for 24 h. The cells were then treated with PIP at concentrations of 25 and 50 μg/ml (as low and high concentrations respectively) for 6 h. PIP was initially dissolved in DMSO and diluted to the target concentrations using DMEM. DMSO (0.5%) was used as the negative control (n = 2). Total RNA was extracted using RNeasy Mini Kit (QIAGEN, Valencia, CA, USA) according to the manufacturer’s protocol. The RNA was measured and the quality was checked using the RNA 6000 LabChip and Agilent 2100 BioAnalyzer. Only the high-quality RNA samples (e.g. RNA integrity number greater than 9.0) were used for subsequent microarray procedure performed at the Functional Genomics Core, Beckman Research Institute, City of Hope Comprehensive Cancer Center. Affymetrix Human Genome U133 Plus 2.0 arrays (Santa Clara, CA, USA) containing 54,675 probe sets detecting over 47,000 transcripts were used. The RNA samples were randomized and blinded prior to the microarray processing/analysis. The cRNA synthesis and labeling were carried out following the Affymetrix GeneChip 3′ IVT Express standard preparation protocol using […] of total RNA from each sample, along with polyA spike-in controls. The cRNA samples were converted to double-stranded cDNA. After second-strand synthesis, the cDNA was purified with the GeneChip sample cleanup module (Affymetrix, Santa Clara, CA). Biotinylated cRNAs were then synthesized by in vitro transcription. For each sample, […] of biotinylated cRNA along with hybridization spiked controls (bioB, bioC, bioD, and cre) was hybridized with Affymetrix Human Genome U133 Plus 2.0 array for 16 h at 45°C. Following hybridization, arrays were washed, stained, and then scanned with an Affymetrix GeneChipH 3000 7G scanner.
Statistical testing and additional analysis of the microarray data were conducted using Partek “Gene Expression” Workflow, i.e., Filtering, PCA, Sample Histogram, QC metrics, Gene Clustering, and ANOVA Analysis). The probe-set level expression data were summarized with Robust Multichip Average (RMA) by taking all 8 microarrays together. PCA and hierarchical clustering analysis (HCA) combined with heatmap was used to assess the quality of the microarray data by evaluating the reproducibility and variation of three replicates within each group and the differences among the three groups. The log2-transformed expression intensities of 54,675 probe sets from the 8 microarrays were used to calculate the Pearson Correlation Coefficient and Ward’s Minimum Variance method was used to calculate the distance between samples.
The differentially expressed genes (DEGs) between the treatment and control group were identified using cutoffs of t-test p value < 0.05 and fold change >2. The DEGs and probe sets were selected separately by comparing each treatment group with the control group. The dose dependent DEGs were than selected by overlapping the two DEGs sets. A functional annotation of these genes was carried out, using a gene ontology-based analysis of biological properties.

PC3-TxR tumor xenografts = experiment: Tumor growth in mice with PC3-TxR (taxane-resistant) tumor xenografts; assay type: in vivo, ICR-NOD/SCID mice; details: TxR tumor xenografts; two weeks after drug administration; DTX 20 mg/kg once a week i.v., PIP 50 mg/kg daily p.o.
Procedure: The following experimental protocol was adopted after approval by the Animal Research Ethics Committee at the Chinese University of Hong Kong. PC3 and PC3-TxR cells were cultured in RPMI 1640 medium containing 10% FBS and 1% penicillin-streptomycin in a humidified atmosphere of 5% CO2 at 37°C. PC3 and PC3-TxR cell pellets were re-suspended in serum free RPMI1640 and diluted by Matrigel™ Basement Membrane Matrix (BD Biosciences, Bedford, MA, USA) to the density of 3.33 × 10^6cells/ml. Male ICR-NOD/SCID mice (Laboratory Animal Services Center at the Chinese University of Hong Kong) weighing 25 to 30 g (age 6–8 weeks) was anesthetized with an intraperitoneal injection of a cocktail containing 87 mg/kg ketamine and 8.7 mg/kg xylazine (diluted with saline and the injection volume was about 0.1 ml). The cell suspension was injected subcutaneously to both the left and right flank region. The tumors were allowed to grow for about 2 weeks. Tumor volumes were measured twice per week (tumor volume = [(W^2 × L)/2], where W is the tumor measurement at the widest point, and L is the tumor dimension at the longest point). When the tumors reach about 100 mm^3, treatment was started and the date was designated as Day 0.

P-gp, sequence (P08183 whole entry): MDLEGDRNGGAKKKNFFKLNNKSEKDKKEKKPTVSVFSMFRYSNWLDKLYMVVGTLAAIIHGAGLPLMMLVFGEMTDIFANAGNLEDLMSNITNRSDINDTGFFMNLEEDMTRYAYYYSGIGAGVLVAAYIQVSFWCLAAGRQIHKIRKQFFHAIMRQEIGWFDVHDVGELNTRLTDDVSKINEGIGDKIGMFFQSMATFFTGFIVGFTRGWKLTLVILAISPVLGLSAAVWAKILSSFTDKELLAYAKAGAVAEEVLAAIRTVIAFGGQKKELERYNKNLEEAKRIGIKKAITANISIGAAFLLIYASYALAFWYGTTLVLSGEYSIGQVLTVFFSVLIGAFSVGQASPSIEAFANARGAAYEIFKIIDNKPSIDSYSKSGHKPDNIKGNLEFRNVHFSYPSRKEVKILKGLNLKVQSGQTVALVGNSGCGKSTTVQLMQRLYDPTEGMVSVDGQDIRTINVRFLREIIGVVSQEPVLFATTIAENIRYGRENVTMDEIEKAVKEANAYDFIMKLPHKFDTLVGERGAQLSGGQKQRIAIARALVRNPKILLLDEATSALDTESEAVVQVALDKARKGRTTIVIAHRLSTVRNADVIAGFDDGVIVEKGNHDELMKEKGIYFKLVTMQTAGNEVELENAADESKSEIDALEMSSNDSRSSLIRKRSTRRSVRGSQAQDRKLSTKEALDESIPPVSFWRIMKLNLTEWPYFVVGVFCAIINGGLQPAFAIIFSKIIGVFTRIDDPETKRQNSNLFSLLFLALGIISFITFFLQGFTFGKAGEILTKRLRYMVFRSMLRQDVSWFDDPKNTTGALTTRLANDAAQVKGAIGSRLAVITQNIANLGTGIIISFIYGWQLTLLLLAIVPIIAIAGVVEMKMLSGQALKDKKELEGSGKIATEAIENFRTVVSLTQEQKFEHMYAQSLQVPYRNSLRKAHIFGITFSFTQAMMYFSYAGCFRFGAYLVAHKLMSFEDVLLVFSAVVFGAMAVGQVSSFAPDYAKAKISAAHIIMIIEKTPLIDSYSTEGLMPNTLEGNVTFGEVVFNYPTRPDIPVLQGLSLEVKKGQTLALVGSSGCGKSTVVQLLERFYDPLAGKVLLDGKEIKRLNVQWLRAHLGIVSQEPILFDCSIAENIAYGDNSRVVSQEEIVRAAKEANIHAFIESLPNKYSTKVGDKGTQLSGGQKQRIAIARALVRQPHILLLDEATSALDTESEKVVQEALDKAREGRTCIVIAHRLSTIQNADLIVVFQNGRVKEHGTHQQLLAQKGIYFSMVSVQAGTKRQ

O=C(/C=C/C=C/c1ccc2c(c1)OCO2)N1CCCCC1 [PIP, 1-piperoyl piperidine]
intracellular DTX concentration in PC3-TxR cells (P-gp): increased to a level similar to that in the positive control
response of mice to PIP at higher dose ([1]; PIP at 100 mg/kg, mice implanted with taxane-resistant prostate cancer): severe excitation responses
percentage of bodyweights ([1]; TxR tumor xenograft mice, two weeks of treatment, control 96%): 98%
expression change of Angiopoietin-like 4 (PC3-TxR cells; High dose PIP): 1.6
expression change of CYP1B1 (PC3-TxR cells; High dose PIP): −4.3
expression change of Fatty acid binding protein 4, adipocyte (PC3-TxR cells; High dose PIP): 1.9
expression change of Keratin associated protein 2–3 (PC3-TxR cells; High dose PIP): −4.7
expression change of Keratin associated protein 3–1 (PC3-TxR cells; High dose PIP): −2.7
expression change of Metastasis associated lung adenocarcinoma transcript 1 (non-protein coding) (PC3-TxR cells; High dose PIP): 4.1
expression change of O-linked N-acetylglucosamine (GlcNAc) transferase (PC3-TxR cells; High dose PIP): 2.3
expression change of Sodium channel, non-voltage-gated 1, gamma subunit (PC3-TxR cells; High dose PIP): 1.5
expression change of TCDD-inducible poly(ADP-ribose) polymerase (PC3-TxR cells; High dose PIP): −2.6
expression change of Thrombospondin 1 (PC3-TxR cells; High dose PIP): −2.4
expression change of Angiopoietin-like 4 (PC3-TxR cells; Low dose PIP): 2.3
expression change of CYP1B1 (PC3-TxR cells; Low dose PIP): −5.1
expression change of Fatty acid binding protein 4, adipocyte (PC3-TxR cells; Low dose PIP): 2.5
expression change of Keratin associated protein 2–3 (PC3-TxR cells; Low dose PIP): −3.3
expression change of Keratin associated protein 3–1 (PC3-TxR cells; Low dose PIP): −2.0
expression change of Metastasis associated lung adenocarcinoma transcript 1 (non-protein coding) (PC3-TxR cells; Low dose PIP): 3.0
expression change of O-linked N-acetylglucosamine (GlcNAc) transferase (PC3-TxR cells; Low dose PIP): 2.0
expression change of Sodium channel, non-voltage-gated 1, gamma subunit (PC3-TxR cells; Low dose PIP): 2.5
expression change of TCDD-inducible poly(ADP-ribose) polymerase (PC3-TxR cells; Low dose PIP): −2.8
expression change of Thrombospondin 1 (PC3-TxR cells; Low dose PIP): −2.2
percentage of tumor size increase (PC3-TxR tumor xenografts): 196%
